Test results: the NIST ThermoML archive (doi:10.1021/acs.jced.6b00766)

Assay: mn = molality of the nth substance listed, in mol/kg
Settings: 101.3 kPa, Liquid; for viscosity: Capillary tube (Ostwald / Ubbelohde) method; for mass density: Vibrating tube method

OC[C@@H](O)[C@H](O)[C@@H](O)CO [xylitol] + O
Settings	mass density, m1 = 0.2 [kg/m3]	mass density, m1 = 0.4 [kg/m3]	mass density, m1 = 0.6 [kg/m3]	mass density, m1 = 0.8 [kg/m3]	mass density, m1 = 1 [kg/m3]	viscosity, m1 = 0.2 [mPa·s]	viscosity, m1 = 0.4 [mPa·s]	viscosity, m1 = 0.6 [mPa·s]	viscosity, m1 = 0.8 [mPa·s]	viscosity, m1 = 1 [mPa·s]
293.15 K	1008.15	1017.64	1026.71	1035.41	1043.78	1.079	1.161	1.25	1.348	1.443
303.15 K	1005.42	1014.74	1023.67	1032.22	1040.41	0.855	0.916	0.981	1.059	1.128
313.15 K	1001.85	1011.07	1019.85	1028.28	1036.38	0.697	0.744	0.794	0.851	0.904
323.15 K	997.56	1006.6	1015.35	1023.7	1031.65	0.582	0.617	0.657	0.701	0.741
